Results taken from patent US4616023A, “Pharmaceutical compositions of 4-(dibenzo-[a,d]cycloalkenyl)piperazine compounds and methods” (Merck & Co., Inc., priority 1985, dated 1986).

system: Rat Aorta; experiment: inhibition of calcium induced contraction of vascular smooth muscle (rat aorta segments); type: cell-based, male Sprague-Dawley rats; settings: at 10^-7 M, 1.0 mM calcium chloride induced contraction, read-out: Percent Inhibition of Rat Aorta
Protocol: The property may be observed in a test in which segments of vascular smooth muscle obtained from male Sprague-Dawleyrats are suspended in physiological salt solution in a tissue bath instrumented for recording contractions. After the tissue has been equilibrated, washed in calcium-free physiological salt solution and then depolarized, 1.0 mM calcium chloride is re-added to induce contraction. After the contraction has reached a plateau, tissues are washed and a test compound or vehicle is added to determine the effect achieved by the above cyclic protocol on a second contraction. From measuring the initial contraction as well as the second contraction in the presence of the test compound, the extent of inhibition may be calculated. The results of these tests for representative compounds in the compositions of the present invention are seen in the following table.

Compound | inhibition at 0.1 µM [%]
CN1CCN(C2c3ccccc3C=Cc3ccc(Cl)cc32)CC1 (centres unmarked) [1-(3-Chloro-5H-dibenzo[a,d]cyclohepten-5-yl)-4-methylpiperazine] | 90
COc1ccc2c(c1)C(N1CCN(C)CC1)c1ccccc1C=C2 (centres unmarked) [1-(3-Methoxy-5H-dibenzo[a,d]cyclohepten-5-yl)-4-methylpiperazine] | 65
Brc1ccc2c(c1)C(N1CCN(CC=Cc3ccccc3)CC1)c1ccccc1C=C2 (centres unmarked) [1-(3-bromo-5H-dibenzo[a,d]cyclohepten-5-yl)-4-cinnamylpiperazine] | 41
C1=Cc2ccccc2C(N2CCNCC2)c2ccccc21 [1-(5H-Dibenzo[a,d]cyclohepten-5-yl)piperazine] | 34
CN1CCN(C2c3ccccc3C=Cc3ccccc32)CC1 [1-(5H-dibenzo[a,d]cyclohepten-5-yl)-4-methylpiperazine] | 59
CN1CCN(C2c3ccccc3CSc3ccccc32)CC1 (centres unmarked) [1-(6,11-Dihydrodibenzo[b,e]thiepin-11-yl)-4-methylpiperazine] | 30
COc1ccc2c(c1)C(N1CCN(C)CC1)c1ccccc1CC2 (centres unmarked) [1-(10,11-Dihydro-3-methoxy-5H-dibenzo[a,d]cyclohepten-5-yl)-4-methylpiperazine] | 36
CSc1ccc2c(c1)C(N1CCN(C)CC1)c1ccccc1C=C2 (centres unmarked) [1-Methyl-4-(3-methylthio-5H-dibenzo[a,d]cyclohepten-5-yl)piperazine] | 76
CCOC(=O)N1CCN(C2c3ccccc3C=Cc3ccccc32)CC1 [Ethyl 4-(5H-Dibenzo[a,d]cyclohepten-5-yl)-1-piperazinecarboxylate] | 37

same assay, conditions: at 10^-8 M, 1.0 mM calcium chloride induced contraction, read-out: Percent Inhibition of Rat Aorta

Compound | inhibition at 0.01 µM [%]
CN1CCN(C2c3ccccc3C=Cc3ccc(Br)cc32)CC1 (centres unmarked) [1-(3-Bromo-5H-dibenzo[a,d]cyclohepten-5-yl)-4-methylpiperazine] | 48
C(=Cc1ccccc1)CN1CCN(C2c3ccccc3C=Cc3ccccc32)CC1 [1-cinnamyl-4-(5H-dibenzo[a,d]cyclohepten-5-yl)piperazine] | 89
